Tests used:
[1] = tested on: fibrin clot formation (fibrinogen, thrombin, CaCl2); assay: Fibrin clot assay; type: biochemical, Human; conditions: 100 μg
Protocol: The fibrin clot assay, as previously described, was performed to evaluate the improvement in blood circulation by the attenuation of fibrin formation. First, 1.5% fibrinogen, 0.5 U/mL of thrombin, and 5 mM CaCl2 in 20 mM Tris-HCl in a volume of 100 μL were added to different concentrations of compounds or 10–20 IU u-PA as PC 1–2. These prepared fibrin clot mixtures were incubated at 37 °C for 30 min. Each tube of the fibrin clot mixture was photographed, and the density of the clots was measured using the ImageJ 1.46 b image analysis software (National Institutes of Health, Bethesda, MD, USA). Inhibitory activity was calculated as follows:Inhibitory activity (%) = [1 − (density control without sample−density sample)/density control without sample] × 100

[2] = tested on: human platelet-poor plasma; assay: Recalcification time assay; type: biochemical; conditions: for Absorbance after Reaction: 650 nm after 30 min, NC2 0.2094 ± 0.0305; for Half Time at 1/2 Maximum: NC2 740 ± 20 s; for Fold of Half Time: NC2 = 1.00; for plasma coagulation time: 1–20 μg
Protocol: Figure 5 Effect of PA (A), IVA (B), and 4-HA (C) on recalcification time and plasma density. Human platelet-poor plasma was mixed with PA, IVA, and 4-HA dissolved in DMSO in 96-well plates and incubated for 10 min at 37 °C. Thereafter, 100 mM pre-warmed CaCl2 was added to the mixture and absorbance was taken every 60 s at 650 nm for 30 min in a microplate reader. The plasma density was presented as the optical density at 650 nm after 30 min. The half time (s) was presented as reaching a half-maximum absorbance value. NC1, plasma only; NC2, plasma treated with CaCl2; PC, positive control group (1 U heparin); PA1–20, 1–20 μg of PA treated; IVA1–20, 1–20 μg of IVA treated; 4-HA1–20, 1–20 μg of 4-HA treated.
Recalcification time was measured in a 96-well plate, according to a previously described method, with slight modifications. First, 50 μL of human platelet-poor plasma was mixed with 50 μL of the compounds, vehicle as NC2, or 1 U heparin as PC, and incubated at 37 °C for 10 min. Thereafter, 100 mM pre-warmed CaCl2 was added to the mixture and absorbance was measured at 650 nm every 1 min for 30 min using a microplate reader. The plasma density was presented as the absorbance at 650 nm after 30 min. The half time was presented as reaching a half-maximum absorbance value.

[3] = tested on: thrombin-activated platelets; assay: ATP release assay; type: cell-based; conditions: 10–100 μg, vs thrombin group, p < 0.05; except 10 μg of 4-HA (p = 0.915)
Protocol: Figure 7 Effect of PA, IVA, and 4-HA on granule secretion. Aliquots of washed platelets pre-treated with or without the compounds for 5 min were stimulated with 0.25 U/mL thrombin at 37 °C for 5 min. After stimulation, the platelets were centrifuged, and the supernatants were collected. Using these supernatants, ATP (A) or serotonin (B) release was determined according to the manufacturer’s instructions. Each value is the mean ± SD of triplicate measurements. # p < 0.01, compared to each control groups. * p < 0.05 and ** p < 0.01, compared to only thrombin-treated control groups. Thrombin, thrombin treated only; PA10-100, 10–100 μg of PA treated; IVA10-100, 10–100 μg of IVA treated; 4-HA10-100, 10–100 μg of 4-HA treated.
Aliquots of washed platelets (250 × 10^6/mL) pre-treated with the compounds for 5 min were activated with 0.25 U/mL of thrombin for 5 min at 37 °C, according to a previously described method, with slight modifications. After activation, the supernatant from centrifuged platelets was used. ATP release was evaluated using an ATP assay kit (Biomedical Research Service Center, Buffalo, NY, USA), according to the manufacturer’s instructions.

With `O=C(O)c1ccc(O)cc1` [4-HA, 4-hydroxybenzoic acid] the “inhibition of fibrin clot formation” value [1] was 67.1 ± 1.3%, the “half-life and plasma coagulation time” value [2] was “significant delay” and the “Absorbance after Reaction” value ([2]; 1 μg) was 0.1424 ± 0.0122. For the same molecule, the “Absorbance after Reaction” value ([2]; 2 μg) was 0.1086 ± 0.0083, the “Half Time at 1/2 Maximum” value ([2]; 2 μg) was 950 ± 70 s and the “Fold of Half Time” value ([2]; 2 μg) was 1.28 ± 0.09. The “Absorbance after Reaction” value ([2]; 5 μg) was 0.0866 ± 0.0051, the “Absorbance after Reaction” value ([2]; 10 μg) was 0.0233 ± 0.0014 and the “Absorbance after Reaction” value ([2]; 20 μg) was 0.0205 ± 0.0029. For the same molecule, the plasma coagulation time [2] was “partially prolonged” and the “thrombin-stimulated ATP secretion levels” value [3] was “significantly decreased”.
`COc1ccc(C(=O)O)cc1O` [IVA, isovanillic acid] was tested, and the “inhibition of fibrin clot formation” value [1] was 55.6 ± 1.7%, the “Absorbance after Reaction” value ([2]; 1 μg) was 0.1882 ± 0.0097 and the “Half Time at 1/2 Maximum” value ([2]; 1 μg) was 510 ± 25 s. The “Fold of Half Time” value ([2]; 1 μg) was 0.69 ± 0.03, the “Absorbance after Reaction” value ([2]; 2 μg) was 0.1732 ± 0.0106 and the “Absorbance after Reaction” value ([2]; 5 μg) was 0.1575 ± 0.0052. For the same molecule, the “Half Time at 1/2 Maximum” value ([2]; 5 μg) was 615 ± 20 s, the “Fold of Half Time” value ([2]; 5 μg) was 0.83 ± 0.03 and the “Absorbance after Reaction” value ([2]; 10 μg) was 0.1377 ± 0.0071. The “Half Time at 1/2 Maximum” value ([2]; 10 μg) was 355 ± 30 s, the “Fold of Half Time” value ([2]; 10 μg) was 0.48 ± 0.04 and the “Absorbance after Reaction” value ([2]; 20 μg) was 0.0462 ± 0.0035. For the same molecule, the plasma coagulation time [2] was “partially prolonged”, the final plasma density ([2]; after 1800 s) was “significantly decreased” and the “initial response of plasma coagulation (fold of half time)” value ([2]; range over doses, promoted (shorter half time)) was 0.48–0.83 fold. The “thrombin-stimulated ATP secretion levels” value [3] was “significantly decreased”.
With `O=C(O)c1ccc(O)c(O)c1` [PA, protocatechuic acid] the “inhibition of fibrin clot formation” value [1] was 66.9 ± 3.3%, the “half-life and plasma coagulation time” value [2] was “significant delay” and the “Absorbance after Reaction” value ([2]; 1 μg) was 0.1898 ± 0.0227. The “Half Time at 1/2 Maximum” value ([2]; 1 μg) was 1220 ± 90 s, the “Fold of Half Time” value ([2]; 1 μg) was 1.65 ± 0.12 and the “Absorbance after Reaction” value ([2]; 2 μg) was 0.0201 ± 0.0012. For the same molecule, the “Absorbance after Reaction” value ([2]; 5 μg) was 0.0044 ± 0.0009, the “Absorbance after Reaction” value ([2]; 10 μg) was −0.0047 ± 0.0004 and the “Absorbance after Reaction” value ([2]; 20 μg) was −0.0103 ± 0.0011. For the same molecule, the “plasma coagulation for 1800 s” value ([2]; 5–20 μg) was “completely delayed” and the “thrombin-stimulated ATP secretion levels” value [3] was “significantly decreased”.

Source: publication PMC9181887, “In Vitro Antithrombotic, Hematological Toxicity, and Inhibitor Studies of Protocatechuic, Isovanillic, and p-Hydroxybenzoic Acids from Maclura tricuspidata (Carr.) Bur” (Molecules, 2022)
